Experimental data reported in US8884032B2, “Trioxane monomers and dimers” (The Johns Hopkins University, priority 2009, dated 2014).
Where “and” joins values, the source holds several entries; their conditions need not be identical. Equal values may be shown once. Marks after values point to notes of the source that are not given here.

Tests used:
[1] = system: Plasmodium berghei, ANKA strain; experiment: Antimalarial efficacy of a single oral dose of trioxane (8 mg/kg) combined with mefloquine hydrochloride (24 mg/kg) in Plasmodium berghei-infected mice (Table 3); assay type: in vivo; conditions: single oral dose 8 mg/kg trioxane + 24 mg/kg mefloquine hydrochloride; for Average Survival (days) After Infection: 3 mice, experiment stopped on day 57
Method: (§1) Each trioxane silylamide 14a, 14b, and 16 (0.90 mg) was dissolved in 0.11 mL of 7:3 Tween 80:ethanol and then diluted with 1.10 mL of water for oral administration to 5-week old C57BU6J male mice (from the Jackson Laboratory) weighing 18-19 grams that were infected intraperitoneally on day 0 with the Plasmodium berghei, ANKA strain (2×10^7 parasitized erythrocytes). Woodard et al., 2009. Each of 3 mice in a group was treated orally 24 hours post-infection with a single dose of 0.20 mL (0.20 mL/1.21 mL×0.9 mg=0.15 mg) of diluted compound solution, corresponding to a dose of 8 mg/kg, combined with 24 mg/kg of mefloquine hydrochloride. Determining blood parasitemia levels, as well as monitoring the duration of animal survival compared to survival time of animals receiving no drug, are both widely accepted as measures of a drug's efficacy in antimalarial drug development. […] Animals infected but receiving no drug died on an average of 15 days post-infection. A widely accepted yardstick of cure (i.e., 100% efficacy) is survival of animals to at least day 30 post-infection, with no detectable malaria parasites in the animal's blood at that time.

[2] = Overt toxicity, behavioral change and body weight in treated malaria-infected mice (silylamide study); assay type: in vivo; conditions: malaria-infected animals cured by trioxane plus mefloquine hydrochloride
Method: as §1

[3] = system: Plasmodium berghei, ANKA strain; experiment: Antimalarial efficacy of a single oral dose of trioxane combined with mefloquine hydrochloride in Plasmodium berghei-infected mice (Table 1); assay type: in vivo
Method: (§2) Each trioxane 2b, 3, 4a, and 4b (0.90 mg) was dissolved in 0.11 mL of 7:3 Tween 80:ethanol and then diluted with 1.10 mL of water for oral administration to 5-week old C57BL/6J male mice (from the Jackson Laboratory) weighing about 22 g that were infected intraperitoneally on day 0 with the Plasmodium berghei, ANKA strain (2×10^7 parasitized erythrocytes). Chen et al., 2006.
(§3) Each of five mice in a group was treated orally 24 h post-infection with a single dose of 0.20 mL (0.20 mL/1.21 mL×0.9 mg=0.15 mg) of diluted compound solution, corresponding to a dose of 6.8 mg/kg, combined with 20 mg/kg of mefloquine hydrochloride. Determining blood parasitemia levels, as well as monitoring the duration of animal survival compared to survival time of animals receiving no drug, are both widely accepted as measures of a drug's efficacy in antimalarial drug development. […] Animals receiving no drug died on days 6-7 post-infection. A widely accepted yardstick of cure (i.e., 100% efficacy) is survival of animals to day 30 post-infection, with no detectable malaria parasites in the animal's blood at that time.
Average survival results are summarized in Table 1, including single oral doses of 13 mg/kg of trioxane combined with 13 mg/kg of mefloquine hydrochloride. The clinically used monomeric water-soluble trioxane drug 2c and the synthetic trioxolane peroxide drug development candidate OZ277 (9) maleate are included as monotherapy reference compounds.

P388 leukemia = conditions: NCI Report on NSC 369397, 25 Oct. 1983; cited from earlier work
[4] = system: 60 cancer cell lines (leukemia, non-small-cell lung, colon, CNS, melanoma, ovarian, renal, prostate, breast); conditions: cited from earlier work
[5] = system: Plasmodium berghei, ANKA malaria strain; experiment: Antimalarial efficacy of a single oral dose (7.1 mg/kg) of trioxane combined with mefloquine hydrochloride (21 mg/kg) in Plasmodium berghei-infected mice (Table 2); assay type: in vivo
Method: (§4) Each trioxane dimer 12a-12c (0.90 mg) was dissolved in 0.11 mL of 7:3 Tween 80:ethanol and then diluted with 1.10 mL of distilled water for oral administration to 5-week-old C57BL/6J male mice (Jackson Laboratory) weighing about 21 g that were infected ip on day 0 with the Plasmodium berghei, ANKA malaria strain (2×10^7 parasitized erythrocytes) [Chen et al., 2006]. Each of five mice in a group was treated orally 24 h post-infection with a single dose of 0.20 mL (0.20 mL/1.21 mL×0.9 mg=0.15 mg) of diluted compound solution, corresponding to a dose of 7.1 mg/kg, combined with 21 mg/kg of mefloquine hydrochloride. Both determining blood parasitemia levels, as well as monitoring the duration of animal survival compared with survival time of infected animals receiving no drug, are widely accepted measures of drug efficacy in antimalarial drug development. […] The average survival time of the animals receiving no drug was 15.8 days post-infection. […] Widely accepted indications of complete cure (i.e. 100% efficacy) are survival of animals to day 30 post-infection with no detectable malaria parasites in the animal's blood at that time.

[6] = Overt toxicity, behavioral change and body weight in treated malaria-infected mice (dimer ester study); assay type: in vivo; conditions: 7.1 mg/kg trioxane + 21 mg/kg mefloquine hydrochloride, mice surviving 30 days
Method: as §4

[7] = system: Plasmodium berghei, ANKA strain; experiment: Antimalarial efficacy of a single oral dose of trioxane (8 mg/kg) combined with mefloquine hydrochloride (24 mg/kg) in Plasmodium berghei-infected mice (Table 3); assay type: in vivo; conditions: mefloquine hydrochloride alone, single oral dose 22 mg/kg
Plasmodium berghei = conditions: monotherapy, single oral dose 30 mg/kg; data from Vennerstrom et al.; cited from earlier work
[8] = Thermal stability in the absence of solvent (1H NMR); assay type: physicochemical; conditions: neat solid
Excerpt: Referring now to Scheme 3, C-10 acetate 2d was converted into C-10-allyl derivative 7 and then, via hydroboration followed by oxidation, into monomeric trioxane carboxylic acid 8. Jung et al, 2003. Monomeric trioxane carboxylic acid 8 can be transformed in one step directly into a diverse library of monomeric trioxane amides. Jung et al, 2003. For example, one-step amidation of carboxylic acid 8 produced trioxane fluoroaryl amide 4a, a monomeric version of dimer fluoroaryl amide 3 (Scheme 3). In the same way, monomer trioxane fluoroanilide 4b was prepared directly and in good yield from carboxylic acid 8 (Scheme 3). The overall yield of 4b is approximately 48% from natural trioxane 1, and scale up to multigram or even kilogram amounts is expected to be straightforward. […]
Referring once again to Scheme 4, dihydroartemisinin acetate 2d, prepared from natural trioxane 1 in near quantitative yield, Posner et al., 2003, underwent tin-promoted dimerization, Posner et al., 2003, with bis-allylic silane 10, Bigot and Breit, 2008, to form pure C-10b, C10b-trioxane dimer alcohol 11 in 59% yield. […] Each of benzoate esters 12a-12c in the absence of solvent is thermally stable at the elevated temperature of 60° C. for at least 1 week and at 70° C. for at least 24 h, with less than 5% decomposition detected by ^1H NMR spectroscopy. […]

[9] = Overt toxicity and behavioral change in treated malaria-infected mice (fluoroaryl amide study); assay type: in vivo; conditions: malaria-infected animals cured by trioxane plus mefloquine hydrochloride
Method: as §2, §3

[10] = single oral dose 6.8 mg/kg trioxane + 20 mg/kg mefloquine hydrochloride
[11] = single oral dose 6.8 mg/kg trioxane + 20 mg/kg mefloquine hydrochloride, 24 h post-infection, C57BL/6J mice
[12] = single oral dose 13 mg/kg trioxane + 13 mg/kg mefloquine hydrochloride
[13] = mefloquine hydrochloride alone, single oral dose 20 mg/kg
[14] = mefloquine hydrochloride alone, single oral dose 21 mg/kg

C[C@H]1[C@@H](CC(C[C@H]2O[C@@H]3O[C@]4(C)CC[C@H]5[C@H](C)CC[C@@H]([C@H]2C)[C@@]35OO4)C(=O)NC[Si](C)(C)C)O[C@@H]2O[C@]3(C)CC[C@H]4[C@H](C)CC[C@@H]1[C@@]24OO3 (stereo partly shown) [compound 16]
% Suppression of Parasitemia (on day 3 post-infection) [1]: >99.5% | parasites in the blood of the surviving mice on day 57 [1]: no parasites were detected | Average Survival (days) After Infection [1]: >57 days | overt toxicity or behavioral change attributable to trioxane drug administration [2]: Neither overt toxicity nor behavioral change

C[C@H]1[C@@H](CC(C[C@H]2O[C@@H]3O[C@]4(C)CC[C@H]5[C@H](C)CC[C@@H]([C@H]2C)[C@@]35OO4)C(=O)NCc2ccc(F)cc2)O[C@@H]2O[C@]3(C)CC[C@H]4[C@H](C)CC[C@@H]1[C@@]24OO3 (stereo partly shown) [compound 3, Trioxane Dimer Fluoroaryl Amide]
% Suppression of Parasitemia (on day 3 post-infection) [3, 10]: 99.5% | Average Survival (days) After Infection [3, 11]: 27.4 (22, 25, days | % Suppression of Parasitemia (on day 3 post-infection) [3, 12]: 99.9% | Average Survival (days) After Infection [3, 12]: 24.6 (17, 21, days

C[C@H]1[C@@H](CCC(=O)NCCC[Si](C)(C)C)O[C@@H]2O[C@]3(C)CC[C@H]4[C@H](C)CC[C@@H]1[C@@]24OO3 [14b]
% Suppression of Parasitemia (on day 3 post-infection) [1]: >99.5% | parasites in the blood of the surviving mice on day 57 [1]: ^aOne mouse died on day 17; the other two mice in this group showed no parasitemia on day 57. | Average Survival (days) After Infection [1]: 44^a days

C[C@@H]1CC[C@H]2[C@@H](C)C(=O)O[C@@H]3O[C@@]4(C)CC[C@@H]1[C@]32OO4 [artemisinin]
activity against P388 leukemia (P388 leukemia): inactive | anticancer activity in 60 cell line panel [4]: modest anticancer activity

C[C@H]1[C@@H](CCC(=O)NC[Si](C)(C)C)O[C@@H]2O[C@]3(C)CC[C@H]4[C@H](C)CC[C@@H]1[C@@]24OO3 [14a]
% Suppression of Parasitemia (on day 3 post-infection) [1]: >99.5% | parasites in the blood of the surviving mice on day 57 [1]: no parasites were detected | Average Survival (days) After Infection [1]: >57 days | overt toxicity or behavioral change attributable to trioxane drug administration [2]: Neither overt toxicity nor behavioral change

CO[C@H]1O[C@@H]2O[C@@]3(C)CC[C@H]4[C@H](C)CC[C@@H]([C@H]1C)[C@@]24OO3 [2b, artemether, reference compound]
% Suppression of Parasitemia (on day 3 post-infection) [3, 10]: 99.8% | Average Survival (days) After Infection [3, 11]: 19.8 days and 19.8 (16, 17, days | % Suppression of Parasitemia (on day 3 post-infection) [3, 12]: 99.7% | Average Survival (days) After Infection [3, 12]: 19.6 (16, 17, days | survival after infection (all mice) ([5]; 7.1 mg/kg trioxane + 21 mg/kg mefloquine hydrochloride): 30 days | No. of mice parasite free (day 30) ([5]; single oral dose 7.1 mg/kg trioxane + 21 mg/kg mefloquine hydrochloride, five mice): 4 | % parasitemia on day 30% ([5]; single oral dose 7.1 mg/kg trioxane + 21 mg/kg mefloquine hydrochloride, number of parasitemic mice in brackets): 1.6 (1 mouse) % | weight gain [6]: 10-20%

Cl.OC(c1cc(C(F)(F)F)nc2c(C(F)(F)F)cccc12)C1CCCCN1 (stereo not shown) [Mefloquine, mefloquine hydrochloride, reference compound]
% Suppression of Parasitemia (on day 3 post-infection) [3, 13]: 99.6% | Average Survival (days) After Infection [3, 13]: 17.6 days | No. of mice parasite free (day 30) [5, 14]: 1 | suppression of parasitemia (day 3) [5, 14]: 91.5% | % parasitemia on day 30% ([5]; mefloquine hydrochloride alone, single oral dose 21 mg/kg, average of 4 mice, hydrochloride, 21 mg/kg): 25 (4 mice) % | % parasitemia on day 30% ([5]; mefloquine hydrochloride alone, single oral dose 21 mg/kg, average of 4 mice, listed as mefloquine hydrochloride, hydrochloride, 21 mg/kg): 25% | cure of malaria-infected mice [7]: not curative

CC(C)(N)CNC(=O)C[C@H]1CC[C@]2(CC1)OO[C@]1(O2)C2CC3CC(C2)CC1C3 [compound 9]
% Suppression of Parasitemia (on day 3 post-infection) (Plasmodium berghei): 99.95^b %

C[C@H]1[C@@H](CCC(=O)Nc2ccc(F)cc2)O[C@@H]2O[C@]3(C)CC[C@H]4[C@H](C)CC[C@@H]1[C@@]24OO3 [4b, Trioxane Monomer Fluoroanilide]
blood parasitemia of the one mouse not cured, day 30 ([3]; 6.8 mg/kg trioxane + 20 mg/kg mefloquine hydrochloride): 4% | mice completely cured (no parasites in their blood) on day 30 post-infection ([3]; 6.8 mg/kg trioxane + 20 mg/kg mefloquine hydrochloride, five mice): 80% | blood parasitemia of the one mouse not cured, day 30 ([3]; 13 mg/kg trioxane + 13 mg/kg mefloquine hydrochloride): 2% | mice cured (day 30) ([3]; 13 mg/kg trioxane + 13 mg/kg mefloquine hydrochloride, five mice): four | % Suppression of Parasitemia (on day 3 post-infection) ([3]; monotherapy, single oral dose 72 mg/kg trioxane, no mefloquine): 99.0% | Average Survival (days) After Infection ([3]; monotherapy, single oral dose 72 mg/kg trioxane, no mefloquine, 72 mg/kg): 24.4 days and 24.4 (21, 23, days | extended survival time after reinfection, longer than average survival of a newly infected control group ([3]; reinfection of the four cured mice on day 32 after the original infection): approximately four | % Suppression of Parasitemia (on day 3 post-infection) [3, 10]: 99.0% | % Suppression of Parasitemia (on day 3 post-infection) [3, 12]: 99.6% | Average Survival (days) After Infection [3, 12]: 30 days | stable in the absence of solvent at 60° C. ([8]; 60° C.): at least 7 days | stable in the absence of solvent at 70° C. ([8]; 70° C.): at least 1 day | overt toxicity or behavioral change attributable to trioxane drug administration [9]: Neither overt toxicity nor behavioral change
